The test system of the assay is BL21 E. coli cells. Nature of the assay: Bacterial kill after contact in LB broth, plating on LB agar. The class given is cell-based. The settings on record: 15 min exposure at 37° C.; for % Reduction Product / CFU/ml Product / Log reduction Product: MES 25 μM, NaDCC 0.9 mg/ml. As to the method: A working suspension of BL21 E. coli cells in LB broth (1.16×10^8 CFU/ml) was contacted for 15 min at 37° C. with either 1×PBS buffer (control), 2-(N-morpholino)ethanesulfonic acid (“MES”) (final conc. of 25 μM or 0.0049 mg/ml), Sodium Dichloroisocyanurate (“NaDCC”) (final conc. of 0.9 mg/ml), or MES (final conc. of 25 μM or 0.0049 mg/ml)+NaDCC (final conc. of 0.9 mg/ml). Lysogeny broth (LB), a nutritionally rich medium, is primarily used for the growth of bacteria.
After contact, ten-fold serial dilutions from 1:10 to 1:10^6 were prepared using D/E neutralizing broth and an aliquot at each dilution (100 μl) was plated onto an LB agar plate and incubated for 20 hours at 37° C.
The plate shown in FIG. 1A corresponds to treatments with MES-only at a plating dilution of 1:1×10^4. The plate shown in FIG. 1B corresponds to treatments with NaDCC-only at a plating dilution of 1:10. The plate shown FIG. 1C corresponds to treatment with MES+NaDCC at plating dilution of 1:10.

Molecules are shown by their SMILES.

With `O=S(=O)(O)CCN1CCOCC1` [MES only, 2-(N-morpholino)ethanesulfonic acid], the “% Reduction Product” value is −10.3448%, the “CFU/ml Product” value was 1.28E+08 CFU/ml and the “Log reduction Product” value is listed as −0.04. In addition, the “Plate count (CFU)” value (plate dilution 1:1.0E+05, 100 ul plated) is 128 CFU.
In the case of `O=c1nc([O-])n(Cl)c(=O)n1Cl.[Na+]` [NaDCC only, Sodium Dichloroisocyanurate], the “% Reduction Product” value is given as 99.9715%, the “CFU/ml Product” value is given as 3.31E+04 CFU/ml and the “Log reduction Product” value is 3.54. Moreover, the “Plate count (CFU)” value (plate dilution 1:1.0E+01, 100 ul plated) is listed as 331 CFU.

The values are drawn from patent publication US9205161B2, “Disinfecting composition comprising a chloramine bleaching agent for removable dental appliances” (LMA Solutions, Inc., priority 2014, dated 2015).
